Measured values published in patent US11242537B2, “Method for improving sensitivity of plant to gibberellin inhibitor and use thereof” (CHINA AGRICULTURAL UNIVERSITY, priority 2017, dated 2022).

Columns and labels:
pSuper1300::ga1-1 = assay: Effect of DPC on plant height (step 4.1), empty vector pSuper1300::ga1-1; assay type: in vivo, Arabidopsis thaliana; conditions: for Plant height: 12 days; for Plant height reduction rate: relative to 0 mg/L
Protocol: (§1) In the following examples, the growth conditions of Arabidopsis thaliana are: culturing in a growth chamber with a photoperiod of 16 h light/8 h dark, a light intensity of 60 μmol/m^2/s, a humidity of 60%-70%, and a temperature of 22° C.
(§2) The experiment was repeated three times, and the specific steps of each repeated experiment were as follows:
(§3) Thirty homozygous line plants of the HRP::ga1-1 of step 2 were randomly selected and randomly divided into three groups, ten plants in each group. On the 33rd day of sowing (the day of sowing was recorded as the first day of sowing), the plants of these three groups were treated as follows, respectively one group was sprayed with water (i.e., 0 mg/L DPC solution) and cultured for 12 days to obtain untreated HRP::ga1-1; one group was sprayed with 30 mg/L DPC solution and cultured for 12 days to obtain 30 mg/L DPC-treated HRP::ga1-1; the last group was sprayed with 500 mg/L aqueous DPC solution and cultured for 12 days to obtain 500 mg/L DPC-treated HRP::ga1-1.
(§4) According to the above method, the homozygous line plants of the HRP::ga1-1 were replaced with the homozygous line plants of the HRP::ga1-5, the homozygous line plants of the ZmCPS::ga1-1, the homozygous line plants of the ZmCPS::ga1-5, the homozygous line plants of the PsSuper1300::ga1-1 and the homozygous line plants of the PsSuper1300::ga1-5 respectively, the other steps were unchanged, and untreated HRP::ga1-5, 30 mg/L DPC-treated HRP::ga1-5, 500 mg/L DPC-treated HRP::ga1-5, untreated ZmCPS::ga1-1, 30 mg/L DPC-treated ZmCPS::ga1-1, 500 mg/L DPC-treated ZmCPS::ga1-1, untreated ZmCPS::ga1-5, 30 mg/L DPC-treated ZmCPS::ga1-5, 500 mg/L DPC-treated ZmCPS::ga1-5, untreated PsSuper1300::ga1-1, 30 mg/L DPC-treated PsSuper1300::ga1-1, 500 mg/L DPC-treated PsSuper1300::ga1-1, untreated PsSuper1300::ga1-5, 30 mg/L DPC-treated PsSuper1300::ga1-5 and 500 mg/L DPC-treated PsSuper1300::ga1-5 were obtained, respectively.
(§5) The plant heights of the above Arabidopsis thaliana before the treatment (FIG. 1) and after different treatments (FIG. 2 and Table 2) were measured.

[1] = system: transgenic zmcps-ko line with the HRP, line No. 623; assay: Sensitivity of transgenic zmcps-ko line with the HRP to DPC, line No. 623; assay type: in vivo, maize; conditions: 500 ppm (5 mM) DPC spray
Excerpt: (§6) The GV3101-pSuper1300-HRP of Example 1 was transformed into the ZmCPSKO maize embryos of step 1.1 by using the Agrobacterium to infect the maize immature embryos, and positive transgenic maize with the HRP was obtained by screening, and the transgenic maize with the HRP contained the target gene HRP. The GV3101-pSuper1300-ZmCPS and GV3101-pSuper1300 were used as controls, and the ZmCPS control maize and empty vector control maize were obtained, respectively.
(§7) The WT and transgenic plants were sprayed with DPC during jointing stage to test their DPC sensitivity: the whole plant was sprayed with 500 ppm […] DPC when the maize was grown to 7 leaf expansion phase and 12 leaf expansion phase. Plant height and ear height were measured 2 weeks after treatment and after tasseling.

B73 (WT) = assay: Sensitivity of wild type maize B73 to DPC; assay type: in vivo; conditions: 500 ppm (5 mM) DPC spray
Protocol: as §7

pSuper1300::ga1-5 = assay: Effect of DPC on plant height (step 4.1), empty vector pSuper1300::ga1-5; assay type: in vivo, Arabidopsis thaliana; conditions: for Plant height: 12 days; for Plant height reduction rate: relative to 0 mg/L
Protocol: as §1, §2, §3, §4, §5

HRP::ga1-1 = assay: Effects of different concentrations of DPC on plant height (step 4.2), HRP::ga1-1; assay type: in vivo, Arabidopsis thaliana
Protocol: as §1, §2
Seventy homozygous line plants of the HRP::ga1-1 of step 2 were randomly selected and randomly divided into seven groups, ten plants in each group. On the 33rd day of sowing (the day of sowing was recorded as the first day of sowing), the plants of these seven groups were treated as follows, respectively: one group was sprayed with water (i.e., 0 mg/L aqueous DPC solution) and cultured for 12 days to obtain untreated HRP::ga1-1; one group was sprayed with 30 mg/L aqueous DPC solution and cultured for 12 days to obtain 30 mg/L DPC-treated HRP::ga1-1; one group was sprayed with 50 mg/L aqueous DPC solution and cultured for 12 days to obtain 50 mg/L DPC-treated HRP::ga1-1; one group was sprayed with 100 mg/L aqueous DPC solution and cultured for 12 days to obtain 100 mg/L DPC-treated HRP::ga1-1; one group was sprayed with 300 mg/L aqueous DPC solution and cultured for 12 days to obtain 300 mg/L DPC-treated HRP::ga1-1; one group was sprayed with 500 mg/L aqueous DPC solution and cultured for 12 days to obtain 500 mg/L DPC-treated HRP::ga1-1; one group was sprayed with 1000 mg/L aqueous DPC solution and cultured for 12 days to obtain 1000 mg/L DPC-treated HRP::ga1-1.
The plant heights of the differently treated Arabidopsis thaliana were measured respectively (FIG. 3), and the average plant heights are shown in Table 3.

ZmCPS::ga1-5 = assay: Effect of DPC on plant height (step 4.1), ZmCPS::ga1-5; assay type: in vivo, Arabidopsis thaliana; conditions: for Plant height: 12 days; for Plant height reduction rate: relative to 0 mg/L
Protocol: as §1, §2, §3, §4, §5

ga1-5 = assay: Effect of DPC on plant height (step 4.1), mutant ga1-5; assay type: in vivo, Arabidopsis thaliana; conditions: for Plant height: 12 days; for Plant height reduction rate: relative to 0 mg/L
Protocol: as §1, §2
When the ga1-1 was cultured to the 33rd day of sowing (the day of sowing was recorded as the first day of sowing), 30 plants were taken and randomly divided into three groups, ten plants in each group and the plants of these three groups were treated as follows, respectively: one group was sprayed with 0 mg/L DPC solution and cultured for 12 days to obtain untreated ga1-1; one group was sprayed with 30 mg/L aqueous DPC solution and cultured for 12 days to obtain 30 mg/L DPC-treated ga1-1; the last group was sprayed with 500 mg/L DPC solution and cultured for 12 days to obtain 500 mg/L DPC-treated ga1-1.
According to the above method, the ga1-1 was replaced with the ga1-5, the other steps were unchanged, and untreated ga1-5, 30 mg/L DPC-treated ga1-5, and 500 mg/L DPC-treated ga1-5 were obtained, respectively.
as §5

[2] = system: transgenic zmcps-ko line with the HRP, line No. 614; assay: Sensitivity of transgenic zmcps-ko line with the HRP to DPC, line No. 614; assay type: in vivo, maize; conditions: 500 ppm (5 mM) DPC spray
Excerpt: as §6, §7

[3] = system: transgenic zmcps-ko line with the HRP, line No. 443; assay: Sensitivity of transgenic zmcps-ko line with the HRP to DPC, line No. 443; assay type: in vivo, maize
Excerpt: as §6, §7

[4] = line No. 443, 500 ppm (5 mM) DPC spray

Structure (SMILES): C[N+]1(C)CCCCC1.[Cl-] [DPC, 1,1-dimethylpiperidinium chloride]
- Plant height (pSuper1300::ga1-1; 30 mg/L DPC spray): 4.33 ± 0.27 cm
- Plant height reduction rate (pSuper1300::ga1-1; 30 mg/L DPC): 4.84%
- Plant height (pSuper1300::ga1-1; 500 mg/L DPC spray): 3.98 ± 0.17 cm
- Plant height reduction rate (pSuper1300::ga1-1; 500 mg/L DPC): 12.53%
- Ear height [1]: 75.2
- Plant height at 2 weeks after treatment [1]: 133.5
- Plant height at tasseling stage [1]: 182.8
- Ear height (B73 (WT); B73 wild type): 91.3
- Plant height at 2 weeks after treatment (B73 (WT); B73 wild type): 151
- Plant height at tasseling stage (B73 (WT); B73 wild type): 207.5
- Sensitivity of the plant to DPC (in words) (B73 (WT); WT (B73)): insensitive
- Plant height (pSuper1300::ga1-5; 30 mg/L DPC spray): 6.54 ± 0.20 cm
- Plant height reduction rate (pSuper1300::ga1-5; 30 mg/L DPC): 5.90%
- Plant height (pSuper1300::ga1-5; 500 mg/L DPC spray): 6.21 ± 0.14 cm
- Plant height reduction rate (pSuper1300::ga1-5; 500 mg/L DPC): 10.65%
- Plant height (average) (HRP::ga1-1; 30 mg/L DPC spray, 12 days (step 4.2)): 9.714 cm
- Plant height (average) (HRP::ga1-1; 50 mg/L DPC spray, 12 days): 9.314 cm
- Plant height (average) (HRP::ga1-1; 100 mg/L DPC spray, 12 days): 9.343 cm
- Plant height (average) (HRP::ga1-1; 300 mg/L DPC spray, 12 days): 8.857 cm
- Plant height (average) (HRP::ga1-1; 500 mg/L DPC spray, 12 days (step 4.2)): 8.586 cm
- Plant height (average) (HRP::ga1-1; 1000 mg/L DPC spray, 12 days): 7.243 cm
- Plant height (ZmCPS::ga1-5; 30 mg/L DPC spray): 16.79 ± 0.13 cm
- Plant height reduction rate (ZmCPS::ga1-5; 30 mg/L DPC): 0.06%
- Plant height (ZmCPS::ga1-5; 500 mg/L DPC spray): 16.66 ± 0.31 cm
- Plant height reduction rate (ZmCPS::ga1-5; 500 mg/L DPC): 0.83%
- Effect of DPC on plant height (in words) (ZmCPS::ga1-5; 30 and 500 mg/L DPC): no effect
- Plant height (ga1-5; 30 mg/L DPC spray): 6.55 ± 0.10 cm
- Plant height reduction rate (ga1-5; 30 mg/L DPC): 6.83%
- Plant height (ga1-5; 500 mg/L DPC spray): 6.40 ± 0.12 cm
- Plant height reduction rate (ga1-5; 500 mg/L DPC): 8.96%
- Ear height [2]: 80.5
- Plant height at 2 weeks after treatment [2]: 133.2
- Plant height at tasseling stage [2]: 197.9
- Sensitivity of the plant to DPC (in words) ([3]; complementary plant, line No. 443 (FIG. 5), 500 ppm (5 mM) DPC spray): sensitive
- Ear height [3, 4]: 80.0
- Plant height at tasseling stage [3, 4]: 187.9
- Plant height at 2 weeks after treatment ([3]; line No. 443, whole plant sprayed with 500 ppm (5 mM) DPC at 7 and 12 leaf expansion phase): 128.9
